From patent publication US4260805A, “1-Descarboxy-1-ketoester (ketoacid)-prostaglandins” (American Cyanamid Company, priority 1979, dated 1981) come the findings set out here.

The test has as its system bronchospasms elicited by intravenous injections of acetylcholine. Description: Bronchodilator activity against bronchospasm elicited by acetylcholine, Konzett procedure. The note with it: Cavia porcellus; spasmogen acetylcholine; three logarithmic cumulative intravenous doses; guinea pig. It counts as in vivo, guinea pigs. The procedure:
The compounds of this invention are useful as bronchodilators for the treatment of asthma and chronic bronchitis. Bronchodilator activity is determined in guinea pigs against bronchospasms elicited by intravenous injections of 5-hydroxytryptamine, histamine or acetylcholine by the Konzett procedure. [See J. Lulling, P. Lievens, F. El Sayed and J. Prignot, Arzneimittel-Forschung, 18, 955 (1968).]
In Table which follows bronchodilator activity for representative compounds of this invention against one or more of three spasmogenic agents is expressed as an ED50 determined from the results obtained with three logarithmic cummulative intravenous doses. In this assay, these compounds of this invention provide an effect of longer duration than does natural 1-PGE1 or 1-PGE2.

By ED50 is commonly meant the dose that gives a 50% effect, or the effect in half of the subjects. A low value points to an effect at a small dose. Compound `CCCCCC(C)(O)/C=C/[C@H]1[C@H](O)CC(=O)[C@@H]1CCCCCCC(=O)C(=O)OCC` (relative stereo) [dl-1,9-dioxo-1-carbethoxy-11α,15-dihydroxy-15-methyl-13-trans-prostene] showed a median effective dose (ED50) of more than 3.2 mg/kg.
